Laboratory results reported in patent US12590075B2, “Refining method” (NGK Insulators, Ltd., priority 2020, dated 2026).

Assay: Dissolution time / dissolution rate of the raw material in a solvent (stereoscopic microscope, heating stage)
Type: physicochemical
Details: heating stage 50±5° C., order of solvents; for Dissolution rate of the raw material (Arranged in order from the fastest to the slowest): 25 mg compound in 2 mL solvent
Description: The dissolution time of the raw material of febuxostat in a solvent was examined as described below. […] First, a heating stage ([…], Mettler) was installed in a stereoscopic microscope (SZX16, Olympus Corporation), and the surface temperature of the heating stage was maintained at 50±5° C. 25 mg of febuxostat (product code […], Tokyo Chemical Industry Co., Ltd.) was weighed into a flat laboratory dish (φ32 mm×16 mm), and 2 mL of the solvent was weighed and added to the laboratory dish, which was then immediately covered with a glass lid. The laboratory dish was placed on the heating stage. […] As a result, the dissolution time was ethanol<2-propanol<acetonitrile (in other words, the dissolution rate was ethanol>2-propanol>acetonitrile). […] The dissolution times of the raw materials of loxoprofen and diclofenac in the solvents were also examined in the same manner as febuxostat.

Compound | Dissolution rate of the raw material (Arranged in order from the fastest to the slowest) | Dissolution rate of the raw material (Arranged in order from the fastest to the slowest) (listed as febuxostat) | dissolution time (25 mg in 2 mL solvent, time until no undissolved material observed)
O=C(O)Cc1ccccc1Nc1c(Cl)cccc1Cl [Diclofenac, diclofenac] | Ethanol, Ethanol/IPA^※1 | – | –
Cc1nc(-c2ccc(OCC(C)C)c(C#N)c2)sc1C(=O)O [Febuxostat, febuxostat] | Ethanol, 2-propanol, Acetonitrile | ethanol>2-propanol>acetonitrile | ethanol<2-propanol<acetonitrile
CC(C(=O)O)c1ccc(CC2CCCC2=O)cc1 (centres unmarked) [Loxoprofen, loxoprofen] | Ethanol, 2-propanol | – | –
